Literature values as cited in US20220354121A1, “EXTERNALLY HEATED GEL REPELLENT” (Lamplight Farms Incorporated, priority 2021, published 2022).

Test system: insect
Conditions: release into local atmosphere

## C/C=C/C1C(C(=O)OCc2c(F)c(F)c(COC)c(F)c2F)C1(C)C (stereo not shown) [metofluthrin]
  metofluthrin release known to be sufficient for local repellency purposes: 7 to 12 mg/h
